Reference: US20210087206A1, “MACROCYCLIC KINASE INHIBITORS AND THEIR USE” (TURNING POINT THERAPEUTICS, INC., priority 2017, published 2021)

Experiments:
Assay in all cases: Cell proliferation assay (CellTiter-Glo)
Assay type in all cases: cell-based
[1] = test system: KG-1 cell (OP2-FGFR1); details: Homo sapiens, anti-cell proliferation, 72 hours
Protocol: (§1) Cell Lines and Cell Culture:
(§2) Colorectal cell line KM 12 (harboring endogenous TPM3-TRKA fusion gene) was obtained from NCI. Acute myelogenous cell line KG-1 (harboring endogenous OP2-FGFR1 fusion gene) were purchased from ATCC.
(§3) Cell Proliferation Assays:
(§4) Two thousand cells per well were seeded in 384 well white plate for 24 hrs, and then treated with compounds for 72 hours (37° C., 5% CO2). Cell proliferation was measured using CellTiter-Glo luciferase-based ATP detection assay (Promega) following the manufactures's protocol. IC50 determinations were performed using GraphPad Prism software (GraphPad, Inc., San Diego, Calif.).

[2] = test system: KM12 (TPM3-TRKA); details: Homo sapiens, anti-cell proliferation, 72 hours
Protocol: as §1, §2, §3, §4

[3] = biological target: T1, BaF3 EML4-ALK (Homo sapiens, UniProt Q9UM73); details: anti-cell proliferation, 72 hours
T1 construct: The EML4-ALK gene (variant 1) was synthesized at GenScript and cloned into pCDH-CMV-MCS-EF1-Puro plasmid (System Biosciences, Inc); fused on or other part: EML4 N-terminal part (variant 1: exons 1-13, with the coiled-coil that oligomerises the fusion) fused to the intracellular part of ALK, which contains the kinase domain; Q9HC35 (Echinoderm microtubule-associated protein-like 4)
Protocol: Cloning and Ba/F3 or NIH3T3 Stable Cell Line Creation
The EML4-ALK gene (variant 1) was synthesized at GenScript and cloned into pCDH-CMV-MCS-EF1-Puro plasmid (System Biosciences, Inc). Ba/F3-EML4-ALK wild type were generated by transducing Ba/F3 cells with lentivirus containing EML4-ALK wide type. Stable cell lines were selected by puromycin treatment, followed by IL-3 withdrawal. Briefly, 5×10^6 Ba/F3 cells were transduced with lentivirus supernatant in the presence of 8 μg/mL protamine sulfate. The transduced cells were subsequently selected with 1 μg/mL puromycin in the presence of IL3-containing medium RPMI1640, plus 10% FBS. After 10-12 days of selection, the surviving cells were further selected for IL3 independent growth.
as §3, §4

T1 sequence (Q9UM73 whole entry, stated change not applied, the tested form may be a part): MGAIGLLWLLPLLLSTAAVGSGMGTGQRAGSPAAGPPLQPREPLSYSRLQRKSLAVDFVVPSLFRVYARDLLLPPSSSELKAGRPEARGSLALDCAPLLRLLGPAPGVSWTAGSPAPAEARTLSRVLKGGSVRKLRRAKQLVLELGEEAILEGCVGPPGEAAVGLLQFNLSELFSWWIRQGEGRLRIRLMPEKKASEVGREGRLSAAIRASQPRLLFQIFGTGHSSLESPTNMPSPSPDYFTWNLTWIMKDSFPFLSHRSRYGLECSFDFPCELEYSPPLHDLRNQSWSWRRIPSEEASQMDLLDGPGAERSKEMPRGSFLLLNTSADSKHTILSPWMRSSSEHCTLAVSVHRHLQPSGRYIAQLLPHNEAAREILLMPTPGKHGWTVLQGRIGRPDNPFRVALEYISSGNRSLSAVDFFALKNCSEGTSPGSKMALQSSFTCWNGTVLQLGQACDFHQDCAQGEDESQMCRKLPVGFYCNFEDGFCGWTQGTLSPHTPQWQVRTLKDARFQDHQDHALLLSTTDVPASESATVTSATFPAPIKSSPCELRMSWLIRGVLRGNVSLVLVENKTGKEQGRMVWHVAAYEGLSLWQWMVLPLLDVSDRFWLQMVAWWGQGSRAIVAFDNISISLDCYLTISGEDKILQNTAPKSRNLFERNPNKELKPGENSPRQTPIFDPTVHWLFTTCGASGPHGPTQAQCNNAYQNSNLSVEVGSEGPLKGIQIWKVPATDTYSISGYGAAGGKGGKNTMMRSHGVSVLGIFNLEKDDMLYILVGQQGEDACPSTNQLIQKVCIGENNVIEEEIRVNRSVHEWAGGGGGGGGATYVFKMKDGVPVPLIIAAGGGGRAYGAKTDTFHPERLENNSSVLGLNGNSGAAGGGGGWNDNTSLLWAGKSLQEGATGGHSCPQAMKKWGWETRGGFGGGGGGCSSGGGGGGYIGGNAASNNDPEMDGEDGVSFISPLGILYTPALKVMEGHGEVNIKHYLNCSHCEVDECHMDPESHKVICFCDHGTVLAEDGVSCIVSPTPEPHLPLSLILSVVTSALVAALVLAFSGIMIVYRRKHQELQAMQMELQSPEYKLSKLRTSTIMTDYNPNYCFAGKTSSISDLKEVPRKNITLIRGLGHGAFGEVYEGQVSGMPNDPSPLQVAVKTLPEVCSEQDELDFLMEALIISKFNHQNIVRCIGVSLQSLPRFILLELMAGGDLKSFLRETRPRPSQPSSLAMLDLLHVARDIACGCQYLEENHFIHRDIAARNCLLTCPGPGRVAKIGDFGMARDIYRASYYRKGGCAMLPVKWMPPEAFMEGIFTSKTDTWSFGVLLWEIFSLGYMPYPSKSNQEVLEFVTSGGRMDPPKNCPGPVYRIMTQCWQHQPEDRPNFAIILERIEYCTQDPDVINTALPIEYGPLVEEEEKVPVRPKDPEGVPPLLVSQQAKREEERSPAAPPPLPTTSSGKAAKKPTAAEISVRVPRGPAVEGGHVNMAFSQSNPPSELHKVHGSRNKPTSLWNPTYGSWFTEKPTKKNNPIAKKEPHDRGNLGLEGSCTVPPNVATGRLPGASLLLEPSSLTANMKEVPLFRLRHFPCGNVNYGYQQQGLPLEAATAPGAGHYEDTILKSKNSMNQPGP

IC50 [3] [nM]	SMILES	IC50 [1] [nM]	IC50 [2] [nM]
969	C[C@H]1CNC(=O)c2cnn3cc4c(nc23)N(CCO4)Cc2c(ccc(F)c2Cl)O1 [Compound 1, (12S)-7-chloro-8-fluoro-12-methyl-3,4,13,14-tetrahydro-6H-18,1-(metheno)[1,4]oxazino[3,4-i]pyrazolo[4,3-f][1,4,8,10]benzoxatriazacyclotridecin-15(12H)-one]	1330	0.2
> 10000	C[C@H]1COc2cn3ncc4c3nc2N1Cc1cc(F)ccc1OCCNC4=O [Compound 2, (4S)-8-fluoro-4-methyl-3,4,13,14-tetrahydro-6H-18,1-(metheno)[1,4]oxazino[3,4-i]pyrazolo[4,3-f][1,4,8,10]benzoxatriazacyclotridecin-15(12H)-one]	> 10000	26.7
94.2	C[C@@H]1COc2cn3ncc4c3nc2N1Cc1cc(F)ccc1OCCNC4=O [Compound 3, (4R,12S)-8-fluoro-4,12-dimethyl-3,4,13,14-tetrahydro-6H-18,1-(metheno)[1,4]oxazino[3,4-i]-pyrazolo[4,3-f][1,4,8,10]benzo-xatriazacyclotridecin-15(12H)-one]	271	0.2
> 10000	C[C@H]1CNC(=O)c2cnn3cc4c(nc23)N(Cc2cc(F)ccc2O1)[C@@H](C)CO4 [Compound 4, (4S,12S)-8-fluoro-4,12-dimethyl-3,4,13,14-tetrahydro-6H-18,1-(metheno)[1,4]oxazino[3,4-i]pyrazolo[4,3-f][1,4,8,10]benzoxatriazacyclotridecin-15(12H)-one]	> 10000	0.2
37.7	C[C@@H]1COc2cn3ncc4c3nc2N1Cc1cc(F)ccc1O[C@@H](C)CNC4=O [Compound 5, (4R,12S)-8-fluoro-4,12-dimethyl-3,4,13,14-tetrahydro-6H-18,1-(metheno)[1,4]oxazino[3,4-i]-pyrazolo[4,3-f][1,4,8,10]benzo-xatriazacyclotridecin-15(12H)-one]	194	0.2
20.6	CC[C@@H]1COc2cn3ncc4c3nc2N1Cc1cc(F)ccc1O[C@@H](C)CNC4=O [Compound 6, (4R,12S)-4-ethyl-8-fluoro-12-methyl-3,4,13,14-tetrahydro-6H-18,1-(metheno)[1,4]oxazino[3,4-i]pyrazolo[4,3-f][1,4,8,10]benzo-xatriazacyclotridecin-15(12H)-one]	234	0.2
101	C[C@@H]1COc2cn3ncc4c3nc2N1Cc1cc(F)cnc1O[C@@H](C)CNC4=O [Compound 8, (4R,12S)-8-fluoro-4,12-dimethyl-3,4,13,14-tetrahydro-6H-18,1-(metheno)[1,4]oxazino[3,4-i]pyrazolo[4,3-f]pyrido[3,2-l][1,4,8,10]oxatriazacyclotridecin-15(12H)-one]	77.5	0.2
11.7	C[C@@H]1COc2ccc(F)cc2CN2c3nc4c(cnn4cc3OC[C@H]2C)C(=O)N1 [Compound 9, (4R,13R)-8-fluoro-4,13-dimethyl-3,4,13,14-tetrahydro-6H-18,1-(metheno)[1,4]oxazino[3,4-i]-pyrazolo[4,3-f][1,4,8,10]benzo-xatriazacyclotridecin-15(12H)-one]	111	0.2
71.2	CC[C@@H]1COc2cn3ncc4c3nc2N1Cc1cc(F)cnc1O[C@@H](C)CNC4=O [Compound 10, (4R,12S)-4-ethyl-8-fluoro-12-methyl-3,4,13,14-tetrahydro-6H-18,1-(metheno)[1,4]oxazino[3,4-i]pyrazolo[4,3-f]pyrido[3,2-l] [1,4,8,10]oxatriazacyclotridecin-15(12H)-one]	63.1	0.2
3170	C[C@H]1CNC(=O)c2cnn3cc4c(nc23)N(Cc2cc(F)ccc2O1)[C@H](COCc1ccccc1)CO4 [Compound 11, (4R,12S)-4-[(benzyloxy)methyl)-8-fluoro-12-methyl-3,4,13,14-tetrahydro-6H-18,1-(metheno)-[1,4]oxazino[3,4-i]pyrazolo[4,3-f][1,4,8,10]benzoxatriazacyclo-tridecin-15(12H)-one]	4000	91.1
1460	C[C@H]1CNC(=O)c2cnn3cc4c(nc23)N(Cc2cc(F)ccc2O1)[C@H](CO)CO4 [Compound 12, (4R,12S)-8-fluoro-4-(hydroxymethyl)-12-methyl-3,4,13,14-tetrahydro-6H-18,1-(metheno)[1,4]oxazino[3,4-i]pyrazolo[4,3-f][1,4,8,10]benzoxatriazacyclotridecin-15(12H)-one]	2000	0.8
28	CC[C@@H]1COc2cn3ncc4c3nc2N1Cc1cc(F)ccc1OC[C@@H](C)NC4=O [Compound 13, (4R,13R)-4-ethyl-8-fluoro-13-methyl-3,4,13,14-tetrahydro-6H-18,1-(metheno)[1,4]oxazino[3,4-i]pyrazolo[4,3-f][1,4,8,10]benzo-xatriazacyclotridecin-15(12H)-one]	145	0.2
104	CC[C@@H]1COc2ncc(F)cc2CN2c3nc4c(cnn4cc3OC[C@H]2C)C(=O)N1 [Compound 24, (4R,13R)-13-ethyl-8-fluoro-4-methyl-3,4,13,14-tetrahydro-6H-18,1-(metheno)[1,4]oxazino[3,4-i]pyrazolo[4,3-f]pyrido[3,2-l] [1,4,8,10]oxatriazacyclotridecin-15(12H)-one]	50	
1550	C[C@H]1CNC(=O)c2cnn3cc4c(nc23)N(Cc2cc(F)cnc2O1)C(C)(C)CO4 [Compound 37, (12S)-8-fluoro-4,4,12-trimethyl-3,4,13,14-tetrahydro-6H-18,1-(metheno)[1,4]oxazino[3,4-i]-pyrazolo[4,3-f]pyrido[3,2-l] [1,4,8,10]oxatriazacyclotridecin-15(12H)-one]	5000	
7240	C[C@H]1CNC(=O)c2cnn3cc4c(nc23)N(Cc2cc(F)cnc2O1)[C@H](Cc1ccccc1)CO4 [Compound 38, (4R,12S)-4-benzyl-8-fluoro-12-methyl-3,4,13,14-tetrahydro-6H-18,1-(metheno)[1,4]oxazino[3,4-i]pyrazolo[4,3-f]pyrido[3,2-l] [1,4,8,10]oxatriazacyclotridecin-15(12H)-one]	357	
1610	C[C@@H]1COc2ncc(F)cc2CN2c3nc4c(cnn4cc3OC[C@H]2Cc2ccccc2)C(=O)N1 [Compound 39, (4R,13R)-4-benzyl-8-fluoro-13-methyl-3,4,13,14-tetrahydro-6H-18,1-(metheno)[1,4]oxazino[3,4-i]pyrazolo[4,3-f]pyrido[3,2-l] [1,4,8,10]oxatriazacyclotridecin-15(12H)-one]	73.7	
	C[C@H]1CNC(=O)c2cnn3cc4c(nc23)N(Cc2cc(F)cnc2O1)C[C@H](O)CO4 [Compound 62, (4S,13S)-9-fluoro-4-hydroxy-13-methyl-4,5,14,15-tetrahydro-3H,7H-19,1-(metheno)[1,4]-oxazepino[3,4-i]pyrazolo[4,3-f]-pyrido[3,2-l][1,4,8,10]oxatria-cyclotridecin-16(13H)-one]	681	94.8
	C[C@@H]1COc2ncc(F)cc2CN2c3nc4c(cnn4cc3OC[C@H]2C#N)C(=O)N1 [Compound 66, (4R,13R)-8-fluoro-13-methyl-15-oxo-3,4,12,13,14,15-hexahydro-6H-18,1-(metheno)[1,4]oxazino[3,4-i]pyrazolo[4,3-f]pyrido[3,2-1][1,4,8,10]oxatriazacyclotridecine-4-carbonitrile]	10000	463
	C[C@@H]1COc2cn3ncc4c3nc2N1Cc1cc(F)cnc1OCC(O)(O)CNC4=O [Compound 81, (16R)-12-fluoro-7,7-dihydroxy-16-methyl-5,6,7,8,16,17-hexahydro-4H,14H-1,19-(metheno)[1,4]oxazino[4,3-e]pyrazolo[3,4-h]pyrido[2,3-b][1,5,7,11]oxatriazacyclotetradecin-4-one]	166	< 0.2
	C[C@H]1CNC(=O)c2cnn3cc4c(nc23)N(Cc2cc(F)cnc2O1)C[C@@H](O)CO4 [Compound 90, (4R,13S)-9-fluoro-4-hydroxy-13-methyl-4,5,14,15-tetrahydro-3H,7H-19,1-(metheno)[1,4]-oxazepino[3,4-i]pyrazolo[4,3-f]pyrido[3,2-l][1,4,8,10]oxatriaza-cyclotridecin-16(13H)-one]	359	< 0.2
	C[C@@H]1COc2ncc(F)cc2CN2C[C@@H](F)COc3cn4ncc(c4nc32)C(=O)N1 [Compound 94, (4R,14R)-4,9-difluoro-14-methyl-4,5,14,15-tetrahydro-3H,7H-19,1-(metheno)[1,4]oxazepino[3,4-i]pyrazolo[4,3-f]pyrido[3,2-l] [1,4,8,10]oxatriazacyclotridecin-16(13H)-one]	6110	40.3
